According to US8415469B2, “Compounds and methods for kinase modulation, and indications therefor” (Plexxikon Inc., priority 2005, dated 2013):

Columns and labels:
Assay type in all cases: biochemical
[1] = molecular target: T1, TEC (Homo sapiens, UniProt P42680); assay: AlphaScreen kinase assay, TEC; conditions: read-out: IC50, activity toward kinase TEC
T1 sequence (P42680 1-631): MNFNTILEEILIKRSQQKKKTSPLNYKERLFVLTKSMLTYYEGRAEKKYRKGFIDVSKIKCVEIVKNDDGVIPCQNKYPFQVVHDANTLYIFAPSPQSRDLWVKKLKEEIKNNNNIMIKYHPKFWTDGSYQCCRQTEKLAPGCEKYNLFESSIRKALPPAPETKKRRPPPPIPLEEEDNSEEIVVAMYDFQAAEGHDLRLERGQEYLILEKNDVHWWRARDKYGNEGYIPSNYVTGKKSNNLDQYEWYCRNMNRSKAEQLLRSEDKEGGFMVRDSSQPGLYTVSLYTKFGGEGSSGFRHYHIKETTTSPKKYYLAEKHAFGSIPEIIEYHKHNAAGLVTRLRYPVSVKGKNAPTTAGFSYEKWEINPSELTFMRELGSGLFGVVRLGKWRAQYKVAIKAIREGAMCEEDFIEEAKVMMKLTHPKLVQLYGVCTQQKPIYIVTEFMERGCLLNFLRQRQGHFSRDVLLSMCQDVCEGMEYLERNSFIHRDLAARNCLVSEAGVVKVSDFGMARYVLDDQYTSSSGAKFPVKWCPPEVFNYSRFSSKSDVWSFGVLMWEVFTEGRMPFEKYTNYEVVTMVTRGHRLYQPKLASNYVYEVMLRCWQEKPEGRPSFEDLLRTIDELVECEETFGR
In short: (§1)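 AlphaScreen, biotin-peptide substrate; streptavidin donor/anti-phospho acceptor beads; decreased emission = inhibition. Cpds 20 mM DMSO stock, 1:3 x 8 conc.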

[2] = molecular target: T2, IKK beta (Homo sapiens, UniProt O14920); assay: AlphaScreen kinase assay, IKK beta; conditions: read-out: IC50, activity toward kinase IKK beta
T2 sequence (O14920 1-756): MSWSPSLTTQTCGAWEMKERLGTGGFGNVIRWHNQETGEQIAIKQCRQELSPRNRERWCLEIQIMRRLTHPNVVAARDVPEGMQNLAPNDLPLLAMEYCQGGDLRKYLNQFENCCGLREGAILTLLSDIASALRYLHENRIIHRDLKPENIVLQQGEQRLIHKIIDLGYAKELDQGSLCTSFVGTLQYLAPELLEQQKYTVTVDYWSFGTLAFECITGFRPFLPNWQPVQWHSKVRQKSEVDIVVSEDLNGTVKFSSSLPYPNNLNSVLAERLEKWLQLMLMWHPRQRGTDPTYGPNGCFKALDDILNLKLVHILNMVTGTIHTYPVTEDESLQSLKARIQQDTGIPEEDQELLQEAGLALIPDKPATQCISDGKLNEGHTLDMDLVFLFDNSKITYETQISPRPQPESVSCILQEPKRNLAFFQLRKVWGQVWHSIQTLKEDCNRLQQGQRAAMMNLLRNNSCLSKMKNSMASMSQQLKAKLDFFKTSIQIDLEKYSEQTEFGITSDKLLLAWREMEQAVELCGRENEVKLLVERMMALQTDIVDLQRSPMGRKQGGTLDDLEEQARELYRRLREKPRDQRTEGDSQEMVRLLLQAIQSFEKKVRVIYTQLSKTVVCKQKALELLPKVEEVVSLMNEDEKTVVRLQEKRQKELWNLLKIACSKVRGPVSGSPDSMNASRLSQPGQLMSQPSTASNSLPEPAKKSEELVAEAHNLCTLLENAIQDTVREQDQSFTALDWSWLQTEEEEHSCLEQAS

[3] = molecular target: Frk (Homo sapiens, UniProt P42685); assay: AlphaScreen kinase assay, Frk; conditions: read-out: IC50, activity toward kinase Frk
Sequence of Frk (P42685 whole entry): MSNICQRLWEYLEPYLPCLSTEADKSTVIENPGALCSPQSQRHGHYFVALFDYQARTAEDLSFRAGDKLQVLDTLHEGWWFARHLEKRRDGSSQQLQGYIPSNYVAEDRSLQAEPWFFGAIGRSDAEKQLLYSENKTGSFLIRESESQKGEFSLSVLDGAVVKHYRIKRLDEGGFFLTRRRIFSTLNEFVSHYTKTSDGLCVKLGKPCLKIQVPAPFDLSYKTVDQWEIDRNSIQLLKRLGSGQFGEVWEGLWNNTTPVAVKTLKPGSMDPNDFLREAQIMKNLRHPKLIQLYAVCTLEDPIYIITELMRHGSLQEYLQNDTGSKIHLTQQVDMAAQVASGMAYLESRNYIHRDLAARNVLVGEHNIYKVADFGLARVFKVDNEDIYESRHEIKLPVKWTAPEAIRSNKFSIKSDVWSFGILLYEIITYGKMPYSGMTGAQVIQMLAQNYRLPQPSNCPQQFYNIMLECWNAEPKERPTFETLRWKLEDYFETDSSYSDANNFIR
In short: as §1

[4] = molecular target: TrkA (Homo sapiens, UniProt P04629); assay: AlphaScreen kinase assay, TrkA; conditions: read-out: IC50, activity toward kinase TrkA
Sequence of TrkA (P04629 33-796): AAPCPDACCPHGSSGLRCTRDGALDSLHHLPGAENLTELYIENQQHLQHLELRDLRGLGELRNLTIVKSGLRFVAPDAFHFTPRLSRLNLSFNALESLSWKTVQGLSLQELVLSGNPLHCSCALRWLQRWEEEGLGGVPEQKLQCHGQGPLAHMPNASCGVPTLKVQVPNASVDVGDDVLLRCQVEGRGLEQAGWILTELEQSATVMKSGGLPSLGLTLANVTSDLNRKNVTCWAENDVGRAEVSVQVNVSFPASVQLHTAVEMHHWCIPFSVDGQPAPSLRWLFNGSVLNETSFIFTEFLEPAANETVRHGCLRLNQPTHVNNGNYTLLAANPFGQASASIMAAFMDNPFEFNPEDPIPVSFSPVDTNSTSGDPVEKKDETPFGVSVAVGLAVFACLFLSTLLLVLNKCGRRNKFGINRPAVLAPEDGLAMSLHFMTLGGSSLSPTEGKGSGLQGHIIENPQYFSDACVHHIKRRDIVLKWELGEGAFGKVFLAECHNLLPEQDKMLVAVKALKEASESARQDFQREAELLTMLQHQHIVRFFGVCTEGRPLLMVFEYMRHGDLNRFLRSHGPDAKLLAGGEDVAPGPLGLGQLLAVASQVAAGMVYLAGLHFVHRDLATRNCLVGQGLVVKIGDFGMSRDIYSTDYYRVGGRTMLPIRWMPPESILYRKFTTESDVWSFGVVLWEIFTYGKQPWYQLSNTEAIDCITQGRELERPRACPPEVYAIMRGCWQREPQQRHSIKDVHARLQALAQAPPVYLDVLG
From the text: AlphaScreen assay was used to screen additional kinases. The assay is similarly dependent on the phosphorylation of a peptide substrate. In this assay, an antibody that recognizes phosphorylated substrate is bound to an acceptor bead. The peptide substrate is attached to biotin, which binds to a donor head that contains streptavidin. Thus phosphorylated substrate is bound by antibody and streptavidin, bringing the donor and acceptor heads into close proximity when kinase is not inhibited. The donor produces singlet oxygen which results in emission from the acceptor when they are in close proximity. Conversely, when kinase is inhibited, the donor and acceptor beads are not associated and the emission from the acceptor is reduced.
AlphaScreen assays were done using compounds dissolved in DMSO to a concentration of 20 mM. The compounds were diluted accordingly to the desired final concentrations in each sample well, using 1:3 serial dilution for a total of 8 concentration points.

Row | IC50 [1] [µM] | IC50 [2] [µM] | Structure (SMILES) | further results
1 | ≤ 10 |  | O=C(O)/C=C/c1cccc(-c2cnc3[nH]cc(C(=O)c4ccccc4F)c3c2)c1 [Compound P-0033] | 
2 | ≤ 10 |  | Cc1ccccc1C(=O)c1c[nH]c2nccc(-c3ccc(C(N)=O)cc3)c12 [Compound P-0017] | 
3 |  | ≤ 10 | CCCS(=O)(=O)Nc1ccc(F)c(C(=O)c2c[nH]c3ncccc23)c1F [Compound P-0007, Propane-1-sulfonic acid [2,4-difluoro-3-(1H-pyrrolo[2,3-b]pyridine-3-carbonyl)-phenyl]-amide] | IC50 [3]: ≤ 10 µM
4 |  |  | OCCOc1ccc(F)c(Cc2c[nH]c3ncc(-c4cccnc4)cc23)c1F [Compound P-1394, 2-[2,4-Difluoro-3-(5-pyridin-3-yl-1H-pyrrolo[2,3-b]pyridin-3-ylmethyl)-phenoxy]-ethanol] | IC50 [3]: ≤ 10 µM
5 |  |  | CCCS(=O)(=O)Nc1ccc(F)c(C(=O)c2c[nH]c3ncc(OC)cc23)c1F [Compound P-0806, Propane-1-sulfonic acid [2,4-difluoro-3-(5-methoxy-1H-pyrrolo[2,3-b]pyridine-3-carbonyl)-phenyl]-amide] | IC50 [4]: ≤ 10 µM
6 |  |  | CCCCNC(=O)Nc1ccc(F)c(C(=O)c2c[nH]c3ncc(-c4cccnc4)cc23)c1F [Compound P-1318, 1-Butyl-3-[2,4-difluoro-3-(5-pyridin-3-yl-1H-pyrrolo[2,3-b]pyridine-3-carbonyl)-phenyl]-urea] | IC50 [3]: ≤ 10 µM
7 |  |  | COc1cc(OC)cc(C(=O)c2c[nH]c3ncc(-c4cccc(NS(C)(=O)=O)c4)cc23)c1 [Compound P-1426, N-{3-[3-(3,5-Dimethoxy-benzoyl)-1H-pyrrolo[2,3-b]pyridin-5-yl]-phenyl}-methanesulfonamide] | IC50 [4]: ≤ 10 µM
8 | ≤ 10 |  | CN(C)S(=O)(=O)Nc1ccc(F)c(Cc2c[nH]c3ncc(-c4cccnc4)cc23)c1F [Compound P-0166] | 
9 | ≤ 10 |  | Cc1ccccc1C(=O)c1c[nH]c2nccc(-c3cccc(N)c3)c12 [Compound P-0044] | 
10 | ≤ 10 |  | CCCS(=O)(=O)Nc1ccc(F)c(C(=O)c2c[nH]c3ncc(-c4cccnc4)cc23)c1F [Compound P-0088, Propane-1-sulfonic acid [2,4-difluoro-3-(5-pyridin-3-yl-1H-pyrrolo[2,3-b]pyridine-3-carbonyl)-phenyl]-amide] | 
11 |  | ≤ 10 | NC(=O)c1ccc(-c2ccnc3[nH]cc(C(=O)c4ccccc4F)c23)cc1 [Compound P-0014] | 
12 |  | ≤ 10 | Fc1cc(F)cc(-c2ccnc3[nH]cc(Sc4ccccn4)c23)c1 [Compound P-0106] | 
13 |  | ≤ 10 | NC(=O)c1ccc(-c2ccnc3[nH]cc(C(=O)c4cc(F)ccc4F)c23)cc1 [Compound P-0013] | 
14 |  |  | COc1cccc(C(=O)c2c[nH]c3ncc(-c4cccc(NC(C)=O)c4)cc23)c1F [Compound P-1336, N-{3-[3-(2-Fluoro-3-methoxy-benzoyl)-1H-pyrrolo[2,3-b]pyridin-5-yl]-phenyl}-acetamide] | IC50 [3]: ≤ 10 µM
15 |  | ≤ 10 | Nc1ccnc2[nH]cc(C(=O)c3ccccc3)c12 [Compound P-0029] | 
